Experimental data published in publication PMC12624955, “Exploring diarylheptanoid derivatives to target LIMK1 as potential agents against colorectal cancer” (Journal of Enzyme Inhibition and Medicinal Chemistry, 2025).

Experiments:
SRC = target: T1, SRC (Homo sapiens, UniProt P12931); test: SelectScreen kinase panel, Z′-LYTE kinase assay; assay type: biochemical; settings: read-out: Inhibition percentage at 1 μM
T1 construct: purchased Thermo Fisher Scientific SelectScreen
Method: (§1) Kinase panel screening was carried out using the SelectScreen Kinase Assay (Thermo Fisher Scientific, Waltham, MA, USA). Three complementary assay formats were applied: the Z′-LYTE kinase assay, LanthaScreen Eu kinase binding assay, and Adapta Universal kinase assay. The kinases selected for this study and the corresponding assay formats are summarised in Supplementary Table S1.
(§2) The Z′-LYTE Kinase Assay (Thermo Fisher Scientific, Waltham, MA, USA) was used to evaluate selected kinases’ activity, according to the manufacturer’s instructions (https://www.thermofisher.com/tw/zt/home/industrial/pharma-biopharma/drug-discovery-development/target-and-lead-identification-and-validation/kinasebiology/kinase-activity-assays/z-lyte/z-lyte-reactivity-table.html). This endpoint assay quantifies kinase activity by detecting peptide substrate phosphorylation. Briefly, a 2× mixture of selected kinase and relevant substrate was prepared in kinase buffer (0.01% polyoxyethylene lauryl ether (BRIJ-35), 50 mM 4-(2-hydroxyethyl)-1-piperazineethanesulfonic acid (HEPES), pH 7.5, 1 mM ethylene glycol-bis(β-aminoethyl ether)-N,N,N′,N′-tetraacetic acid (EGTA), and 10 mM MgCl2). After 1 h incubation at room temperature, 5 μl of 1:128 diluted development reagent solution was added, followed by an additional 1 h incubation. Fluorescence was recorded using a multimode plate reader.

PIM1 = target: T2, PIM1 (Homo sapiens, UniProt P11309); test: SelectScreen kinase panel, Z′-LYTE kinase assay; assay type: biochemical; settings: read-out: Inhibition percentage at 1 μM
T2 construct: purchased Thermo Fisher Scientific SelectScreen
Method: as §1, §2

CAMK2B (CaMKII beta) = target: T3, CAMK2B (CaMKII beta) (Homo sapiens, UniProt Q13554); test: SelectScreen kinase panel, Z′-LYTE kinase assay; assay type: biochemical; settings: read-out: Inhibition percentage at 1 μM
T3 construct: purchased Thermo Fisher Scientific SelectScreen
Method: as §1, §2

MAPK3 (ERK1) = target: T4, MAPK3 (ERK1) (Homo sapiens, UniProt P27361); test: SelectScreen kinase panel, Z′-LYTE kinase assay; assay type: biochemical; settings: read-out: Inhibition percentage at 1 μM
T4 construct: purchased Thermo Fisher Scientific SelectScreen
Method: as §1, §2

DYRK1B = target: T5, DYRK1B (Homo sapiens, UniProt Q9Y463); test: SelectScreen kinase panel, Z′-LYTE kinase assay; assay type: biochemical; settings: read-out: Inhibition percentage at 1 μM
T5 construct: purchased Thermo Fisher Scientific SelectScreen
Method: as §1, §2

FGFR1 = target: T6, FGFR1 (Homo sapiens, UniProt P11362); test: SelectScreen kinase panel, Z′-LYTE kinase assay; assay type: biochemical; settings: read-out: Inhibition percentage at 1 μM
T6 construct: purchased Thermo Fisher Scientific SelectScreen
Method: as §1, §2

MAP3K9 (MLK1) = target: T7, MAP3K9 (MLK1) (Homo sapiens, UniProt P80192); test: SelectScreen kinase panel, Z′-LYTE kinase assay; assay type: biochemical; settings: read-out: Inhibition percentage at 1 μM
T7 construct: purchased Thermo Fisher Scientific SelectScreen
Method: as §1, §2

IRAK4 = target: T8, IRAK4 (Homo sapiens, UniProt Q9NWZ3); test: SelectScreen kinase panel, Z′-LYTE kinase assay; assay type: biochemical; settings: read-out: Inhibition percentage at 1 μM
T8 construct: purchased Thermo Fisher Scientific SelectScreen
Method: as §1, §2

NTRK1 (TRKA) = target: T9, NTRK1 (TRKA) (Homo sapiens, UniProt P04629); test: SelectScreen kinase panel, Z′-LYTE kinase assay; assay type: biochemical; settings: read-out: Inhibition percentage at 1 μM
T9 construct: purchased Thermo Fisher Scientific SelectScreen
Method: as §1, §2

HIPK1 (Myak) = target: T10, HIPK1 (Myak) (Homo sapiens, UniProt Q86Z02); test: SelectScreen kinase panel, Z′-LYTE kinase assay; assay type: biochemical; settings: read-out: Inhibition percentage at 1 μM
T10 construct: purchased Thermo Fisher Scientific SelectScreen
Method: as §1, §2

LCK = target: T11, LCK (Homo sapiens, UniProt P06239); test: SelectScreen kinase panel, Z′-LYTE kinase assay; assay type: biochemical; settings: read-out: Inhibition percentage at 1 μM
T11 construct: purchased Thermo Fisher Scientific SelectScreen
Method: as §1, §2

MKNK1 (MNK1) = target: T12, MKNK1 (MNK1) (Homo sapiens, UniProt Q9BUB5); test: SelectScreen kinase panel, Z′-LYTE kinase assay; assay type: biochemical; settings: read-out: Inhibition percentage at 1 μM
T12 construct: purchased Thermo Fisher Scientific SelectScreen
Method: as §1, §2

CDK2/cyclin A = target: T13, CDK2/cyclin A (Homo sapiens, UniProt P24941); test: SelectScreen kinase panel, Z′-LYTE kinase assay; assay type: biochemical; settings: read-out: Inhibition percentage at 1 μM
T13 construct: purchased Thermo Fisher Scientific SelectScreen
Method: as §1, §2

ROCK1 = target: T14, ROCK1 (Homo sapiens, UniProt Q13464); test: SelectScreen kinase panel, Z′-LYTE kinase assay; assay type: biochemical; settings: read-out: Inhibition percentage at 1 μM
T14 construct: purchased Thermo Fisher Scientific SelectScreen
Method: as §1, §2

MINK1 = target: T15, MINK1 (Homo sapiens, UniProt Q8N4C8); test: SelectScreen kinase panel, Z′-LYTE kinase assay; assay type: biochemical; settings: read-out: Inhibition percentage at 1 μM
T15 construct: purchased Thermo Fisher Scientific SelectScreen
Method: as §1, §2

PLK2 = target: T16, PLK2 (Homo sapiens, UniProt Q9NYY3); test: SelectScreen kinase panel, Z′-LYTE kinase assay; assay type: biochemical; settings: read-out: Inhibition percentage at 1 μM
T16 construct: purchased Thermo Fisher Scientific SelectScreen
Method: as §1, §2

RPS6KA3 (RSK2) = target: T17, RPS6KA3 (RSK2) (Homo sapiens, UniProt P51812); test: SelectScreen kinase panel, Z′-LYTE kinase assay; assay type: biochemical; settings: read-out: Inhibition percentage at 1 μM
T17 construct: purchased Thermo Fisher Scientific SelectScreen
Method: as §1, §2

IKBKB (IKK beta) = target: T18, IKBKB (IKK beta) (Homo sapiens, UniProt O14920); test: SelectScreen kinase panel, Z′-LYTE kinase assay; assay type: biochemical; settings: read-out: Inhibition percentage at 1 μM
T18 construct: purchased Thermo Fisher Scientific SelectScreen
Method: as §1, §2

MARK3 = target: T19, MARK3 (Homo sapiens, UniProt P27448); test: SelectScreen kinase panel, Z′-LYTE kinase assay; assay type: biochemical; settings: read-out: Inhibition percentage at 1 μM
T19 construct: purchased Thermo Fisher Scientific SelectScreen
Method: as §1, §2

AURKA (Aurora A) = target: T20, AURKA (Aurora A) (Homo sapiens, UniProt O14965); test: SelectScreen kinase panel, Z′-LYTE kinase assay; assay type: biochemical; settings: read-out: Inhibition percentage at 1 μM
T20 construct: purchased Thermo Fisher Scientific SelectScreen
Method: as §1, §2

ERBB4 (HER4) = target: T21, ERBB4 (HER4) (Homo sapiens, UniProt Q15303); test: SelectScreen kinase panel, Z′-LYTE kinase assay; assay type: biochemical; settings: read-out: Inhibition percentage at 1 μM
T21 construct: purchased Thermo Fisher Scientific SelectScreen
Method: as §1, §2

NEK1 = target: T22, NEK1 (Homo sapiens, UniProt Q96PY6); test: SelectScreen kinase panel, Z′-LYTE kinase assay; assay type: biochemical; settings: read-out: Inhibition percentage at 1 μM
T22 construct: purchased Thermo Fisher Scientific SelectScreen
Method: as §1, §2

CSNK1G1 (CK1 gamma 1) = target: T23, CSNK1G1 (CK1 gamma 1) (Homo sapiens, UniProt Q9HCP0); test: SelectScreen kinase panel, Z′-LYTE kinase assay; assay type: biochemical; settings: read-out: Inhibition percentage at 1 μM
T23 construct: purchased Thermo Fisher Scientific SelectScreen
Method: as §1, §2

CSNK1D (CK1 delta) = target: T24, CSNK1D (CK1 delta) (Homo sapiens, UniProt P48730); test: SelectScreen kinase panel, Z′-LYTE kinase assay; assay type: biochemical; settings: read-out: Inhibition percentage at 1 μM
T24 construct: purchased Thermo Fisher Scientific SelectScreen
Method: as §1, §2

BTK = target: T25, BTK (Homo sapiens, UniProt Q06187); test: SelectScreen kinase panel, Z′-LYTE kinase assay; assay type: biochemical; settings: read-out: Inhibition percentage at 1 μM
T25 construct: purchased Thermo Fisher Scientific SelectScreen
Method: as §1, §2

DCAMKL1 (DCLK1) = target: T26, DCAMKL1 (DCLK1) (Homo sapiens, UniProt O15075); test: SelectScreen kinase panel, Z′-LYTE kinase assay; assay type: biochemical; settings: read-out: Inhibition percentage at 1 μM
T26 construct: purchased Thermo Fisher Scientific SelectScreen
Method: as §1, §2

STK3 (MST2) = target: T27, STK3 (MST2) (Homo sapiens, UniProt Q13188); test: SelectScreen kinase panel, Z′-LYTE kinase assay; assay type: biochemical; settings: read-out: Inhibition percentage at 1 μM
T27 construct: purchased Thermo Fisher Scientific SelectScreen
Method: as §1, §2

AKT1 (PKB alpha) = target: T28, AKT1 (PKB alpha) (Homo sapiens, UniProt P31749); test: SelectScreen kinase panel, Z′-LYTE kinase assay; assay type: biochemical; settings: read-out: Inhibition percentage at 1 μM
T28 construct: purchased Thermo Fisher Scientific SelectScreen
Method: as §1, §2

HCT-116 = test: Analysis of cell cycle by flow cytometry; assay type: cell-based; settings: HCT116; 1, 3, 10, and 30 μM for 72 h
Method: (§3) Cells were seeded in six-well plates at a density of 5 × 10^5 cells/well in a 2 ml culture medium and treated with compounds at the indicated concentration for 72 h. After treatment, cells were collected and fixed with 75% (v/v) ice-cold ethanol at −20 °C for 20 min. The cells were then centrifuged to remove the buffer, resuspended, and stained with 0.5 ml of propidium iodide (PI) staining buffer (80 µg/ml PI, […] RNase A, and 1% Triton X-100 in PBS). The cell cycle distribution was analysed using a BD Accuri™ Flow cytometer and software (Becton Dickinson, Mountain View, CA, USA).

HT-29 = test: Analysis of cell cycle by flow cytometry; assay type: cell-based; settings: 1, 3, 10, and 30 μM for 72 h
Method: as §3

T6 sequence (P11362 22-822): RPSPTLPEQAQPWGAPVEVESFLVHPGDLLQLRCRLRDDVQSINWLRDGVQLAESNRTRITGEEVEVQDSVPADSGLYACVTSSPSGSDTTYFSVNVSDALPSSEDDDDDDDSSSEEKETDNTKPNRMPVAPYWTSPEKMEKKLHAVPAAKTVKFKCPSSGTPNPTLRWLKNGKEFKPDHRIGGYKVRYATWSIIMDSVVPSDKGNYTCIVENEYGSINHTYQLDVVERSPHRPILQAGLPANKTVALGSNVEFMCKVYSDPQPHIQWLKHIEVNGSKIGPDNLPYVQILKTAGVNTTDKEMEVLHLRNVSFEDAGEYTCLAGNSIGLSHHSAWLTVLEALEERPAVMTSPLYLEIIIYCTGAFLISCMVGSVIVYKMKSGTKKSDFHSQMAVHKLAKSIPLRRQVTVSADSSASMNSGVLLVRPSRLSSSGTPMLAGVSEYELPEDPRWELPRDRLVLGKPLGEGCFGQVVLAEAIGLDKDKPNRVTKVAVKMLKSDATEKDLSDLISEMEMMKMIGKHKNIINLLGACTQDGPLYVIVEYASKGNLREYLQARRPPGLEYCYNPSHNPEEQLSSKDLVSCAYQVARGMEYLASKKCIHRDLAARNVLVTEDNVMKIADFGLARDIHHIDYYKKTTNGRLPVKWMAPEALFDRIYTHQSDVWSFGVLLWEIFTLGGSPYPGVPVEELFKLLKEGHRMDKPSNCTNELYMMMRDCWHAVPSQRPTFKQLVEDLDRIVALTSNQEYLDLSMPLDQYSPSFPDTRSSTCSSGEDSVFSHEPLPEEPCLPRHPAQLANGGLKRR
T15 sequence (Q8N4C8 whole entry): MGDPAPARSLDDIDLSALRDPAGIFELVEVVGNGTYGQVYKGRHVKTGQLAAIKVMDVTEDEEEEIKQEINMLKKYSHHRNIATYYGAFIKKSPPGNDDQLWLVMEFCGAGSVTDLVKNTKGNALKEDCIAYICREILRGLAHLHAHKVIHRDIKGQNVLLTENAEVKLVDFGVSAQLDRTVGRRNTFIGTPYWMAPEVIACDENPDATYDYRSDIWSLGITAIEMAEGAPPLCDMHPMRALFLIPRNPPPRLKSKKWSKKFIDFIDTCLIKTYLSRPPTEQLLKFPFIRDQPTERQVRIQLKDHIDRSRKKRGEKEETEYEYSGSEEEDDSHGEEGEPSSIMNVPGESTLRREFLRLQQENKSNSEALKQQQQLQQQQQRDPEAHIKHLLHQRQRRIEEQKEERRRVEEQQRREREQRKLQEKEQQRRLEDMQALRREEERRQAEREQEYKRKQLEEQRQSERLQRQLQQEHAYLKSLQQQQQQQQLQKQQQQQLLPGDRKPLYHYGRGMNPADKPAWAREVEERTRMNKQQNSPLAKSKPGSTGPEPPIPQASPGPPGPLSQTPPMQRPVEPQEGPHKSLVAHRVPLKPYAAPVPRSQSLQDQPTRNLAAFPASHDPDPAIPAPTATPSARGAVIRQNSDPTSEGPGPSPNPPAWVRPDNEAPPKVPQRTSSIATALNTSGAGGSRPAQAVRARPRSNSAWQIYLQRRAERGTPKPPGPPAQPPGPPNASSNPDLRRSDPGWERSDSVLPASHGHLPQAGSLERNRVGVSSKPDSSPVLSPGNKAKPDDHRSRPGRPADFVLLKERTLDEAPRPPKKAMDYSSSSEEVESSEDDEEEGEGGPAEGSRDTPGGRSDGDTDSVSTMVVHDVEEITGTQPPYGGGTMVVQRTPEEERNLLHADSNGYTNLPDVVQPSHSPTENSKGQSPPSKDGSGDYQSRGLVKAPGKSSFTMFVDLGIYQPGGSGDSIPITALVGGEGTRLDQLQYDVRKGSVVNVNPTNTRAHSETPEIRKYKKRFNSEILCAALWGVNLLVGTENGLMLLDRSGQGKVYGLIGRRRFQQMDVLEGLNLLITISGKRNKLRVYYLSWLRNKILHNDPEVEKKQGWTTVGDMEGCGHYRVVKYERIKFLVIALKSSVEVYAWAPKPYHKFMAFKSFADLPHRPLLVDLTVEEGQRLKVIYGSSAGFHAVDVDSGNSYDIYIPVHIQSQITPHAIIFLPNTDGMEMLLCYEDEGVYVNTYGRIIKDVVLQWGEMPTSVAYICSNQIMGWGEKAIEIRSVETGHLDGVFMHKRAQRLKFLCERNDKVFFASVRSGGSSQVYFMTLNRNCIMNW
T21 sequence (Q15303 26-1308): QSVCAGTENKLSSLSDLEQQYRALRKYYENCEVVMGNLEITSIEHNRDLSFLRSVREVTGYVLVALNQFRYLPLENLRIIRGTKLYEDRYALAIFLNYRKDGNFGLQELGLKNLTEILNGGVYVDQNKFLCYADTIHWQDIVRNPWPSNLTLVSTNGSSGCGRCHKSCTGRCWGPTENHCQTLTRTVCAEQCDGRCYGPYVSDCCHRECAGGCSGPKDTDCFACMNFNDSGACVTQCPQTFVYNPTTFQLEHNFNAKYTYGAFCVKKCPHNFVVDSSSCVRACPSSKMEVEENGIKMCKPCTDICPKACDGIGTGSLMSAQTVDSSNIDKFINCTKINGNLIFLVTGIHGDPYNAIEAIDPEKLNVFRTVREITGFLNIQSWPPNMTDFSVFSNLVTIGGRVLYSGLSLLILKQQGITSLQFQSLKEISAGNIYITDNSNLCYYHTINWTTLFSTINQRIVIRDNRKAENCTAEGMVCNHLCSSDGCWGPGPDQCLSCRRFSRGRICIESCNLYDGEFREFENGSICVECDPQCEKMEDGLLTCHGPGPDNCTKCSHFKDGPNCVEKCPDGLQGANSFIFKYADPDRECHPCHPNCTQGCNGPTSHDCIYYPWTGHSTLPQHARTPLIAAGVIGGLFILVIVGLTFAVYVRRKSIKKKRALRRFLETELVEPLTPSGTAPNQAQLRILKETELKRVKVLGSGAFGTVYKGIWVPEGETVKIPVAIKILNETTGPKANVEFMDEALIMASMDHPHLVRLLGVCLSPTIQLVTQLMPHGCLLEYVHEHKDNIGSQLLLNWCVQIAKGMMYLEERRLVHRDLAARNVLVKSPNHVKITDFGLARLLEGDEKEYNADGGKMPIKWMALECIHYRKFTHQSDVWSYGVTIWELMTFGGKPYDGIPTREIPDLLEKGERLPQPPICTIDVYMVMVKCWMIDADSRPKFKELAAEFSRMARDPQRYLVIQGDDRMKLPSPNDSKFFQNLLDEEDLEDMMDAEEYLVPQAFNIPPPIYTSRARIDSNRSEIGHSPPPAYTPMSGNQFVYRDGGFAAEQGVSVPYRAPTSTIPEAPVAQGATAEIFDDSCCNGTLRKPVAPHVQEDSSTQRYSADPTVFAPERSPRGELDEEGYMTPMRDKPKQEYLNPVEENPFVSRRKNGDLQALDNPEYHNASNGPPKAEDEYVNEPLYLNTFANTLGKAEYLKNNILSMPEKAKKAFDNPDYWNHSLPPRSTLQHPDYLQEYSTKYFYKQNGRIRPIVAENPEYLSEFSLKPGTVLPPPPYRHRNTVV
T5 sequence (Q9Y463 whole entry): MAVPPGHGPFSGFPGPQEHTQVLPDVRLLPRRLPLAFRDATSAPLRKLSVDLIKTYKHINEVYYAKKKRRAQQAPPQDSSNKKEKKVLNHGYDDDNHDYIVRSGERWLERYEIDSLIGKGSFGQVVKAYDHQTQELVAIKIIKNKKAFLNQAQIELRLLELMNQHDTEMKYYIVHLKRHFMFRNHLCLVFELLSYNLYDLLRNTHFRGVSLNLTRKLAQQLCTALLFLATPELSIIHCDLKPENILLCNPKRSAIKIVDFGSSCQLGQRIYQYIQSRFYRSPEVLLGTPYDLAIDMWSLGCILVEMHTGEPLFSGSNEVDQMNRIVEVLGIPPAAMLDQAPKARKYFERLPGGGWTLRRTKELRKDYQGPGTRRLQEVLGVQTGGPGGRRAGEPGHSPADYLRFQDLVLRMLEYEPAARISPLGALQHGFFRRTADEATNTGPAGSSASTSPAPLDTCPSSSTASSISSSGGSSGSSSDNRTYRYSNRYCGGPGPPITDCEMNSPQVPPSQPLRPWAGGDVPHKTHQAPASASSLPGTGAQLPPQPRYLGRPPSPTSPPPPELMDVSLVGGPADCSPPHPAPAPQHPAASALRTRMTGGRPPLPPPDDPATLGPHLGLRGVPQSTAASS
T3 sequence (Q13554 whole entry): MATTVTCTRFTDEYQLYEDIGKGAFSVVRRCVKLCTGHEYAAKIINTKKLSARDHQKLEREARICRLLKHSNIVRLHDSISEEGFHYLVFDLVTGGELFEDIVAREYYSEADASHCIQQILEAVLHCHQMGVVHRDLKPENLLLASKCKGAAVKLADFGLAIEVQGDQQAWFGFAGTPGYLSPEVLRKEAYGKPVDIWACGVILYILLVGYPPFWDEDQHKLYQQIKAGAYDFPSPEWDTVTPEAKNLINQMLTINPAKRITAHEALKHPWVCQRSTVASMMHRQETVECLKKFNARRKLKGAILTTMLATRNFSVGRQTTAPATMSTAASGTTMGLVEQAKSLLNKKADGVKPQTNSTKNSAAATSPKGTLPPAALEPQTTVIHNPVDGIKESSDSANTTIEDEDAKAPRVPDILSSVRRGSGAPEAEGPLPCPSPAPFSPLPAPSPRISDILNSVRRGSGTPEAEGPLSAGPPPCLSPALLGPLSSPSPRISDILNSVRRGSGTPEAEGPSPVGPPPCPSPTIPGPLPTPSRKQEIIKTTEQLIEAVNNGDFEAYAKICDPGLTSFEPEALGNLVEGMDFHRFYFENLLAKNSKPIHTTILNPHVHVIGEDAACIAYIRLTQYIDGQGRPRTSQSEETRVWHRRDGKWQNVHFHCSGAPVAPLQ
T2 sequence (P11309 whole entry): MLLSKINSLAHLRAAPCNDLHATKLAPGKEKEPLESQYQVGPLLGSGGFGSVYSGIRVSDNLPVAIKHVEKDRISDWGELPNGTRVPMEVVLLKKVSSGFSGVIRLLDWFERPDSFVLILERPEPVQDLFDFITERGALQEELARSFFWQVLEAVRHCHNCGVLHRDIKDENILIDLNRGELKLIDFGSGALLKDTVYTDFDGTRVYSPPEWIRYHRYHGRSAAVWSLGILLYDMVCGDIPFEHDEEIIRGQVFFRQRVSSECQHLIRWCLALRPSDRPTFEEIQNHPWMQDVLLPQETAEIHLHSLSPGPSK

inhibition at 1 µM (SRC): 0%
inhibition at 1 µM (PIM1): 12%
inhibition at 1 µM (CAMK2B (CaMKII beta)): 19%
inhibition at 1 µM (MAPK3 (ERK1)): 6%
inhibition at 1 µM (DYRK1B): 4%
inhibition at 1 µM (FGFR1): 3%
inhibition at 1 µM (MAP3K9 (MLK1)): 2%
inhibition at 1 µM (IRAK4): 4%
inhibition at 1 µM (NTRK1 (TRKA)): -7%
inhibition at 1 µM (HIPK1 (Myak)): 2%
inhibition at 1 µM (LCK): -6%
inhibition at 1 µM (MKNK1 (MNK1)): 8%
inhibition at 1 µM (CDK2/cyclin A): 0%
inhibition at 1 µM (ROCK1): 10%
inhibition at 1 µM (MINK1): 13%
inhibition at 1 µM (PLK2): 16%
inhibition at 1 µM (RPS6KA3 (RSK2)): 8%
inhibition at 1 µM (IKBKB (IKK beta)): 8%
inhibition at 1 µM (MARK3): 6%
inhibition at 1 µM (AURKA (Aurora A)): 18%
inhibition at 1 µM (ERBB4 (HER4)): 15%
inhibition at 1 µM (NEK1): -1%
inhibition at 1 µM (CSNK1G1 (CK1 gamma 1)): 4%
inhibition at 1 µM (CSNK1D (CK1 delta)): 7%
inhibition at 1 µM (BTK): 19%
inhibition at 1 µM (DCAMKL1 (DCLK1)): 1%
inhibition at 1 µM (STK3 (MST2)): 0%
inhibition at 1 µM (AKT1 (PKB alpha)): 2%
SMILES: O=C(/C=C/c1ccc(O)c(O)c1)CCCCn1ccc2c(O)cccc21 [Compound 13a, (E)-1-(3,4-dihydroxyphenyl)-7-(4-hydroxy-1H-indol-1-yl)hept-1-en-3-one]
G0/G1 phase population (HCT-116): decrease in the G0/G1 phase
S phase population (HCT-116): dose-dependent increase in the S phase
population of Sub-G1 cells (HCT-116): increased in a dose-dependent manner
population of Sub-G1 cells (HT-29): increased in a dose-dependent manner
